Reference: patent publication US10865203B2, “Ligands selective to alpha 6 subunit-containing GABAA receptors and their methods of use” (UWM Research Foundation, Inc., priority 2015, dated 2020)

Legend:
[1] = Rapid equilibrium dialysis assay, free fraction; type: in vitro ADME; conditions: rat, read-out: free fraction in rat blood
Text: Five pharmacokinetic studies have been performed; four in male Wistar rats and one in male Swiss mice.

IoN-CCl Wistar rats = assay: IoN-CCl neuropathic pain model, von Frey filaments; type: in vivo, rat
Method: Chronic constriction injury (CCl) is a common neuropathic pain model. The unilateral ligature of the infraorbital nerve (IoN) in rats, as an animal model of peripheral neuropathic pain, and more specifically, trigeminal neuralgia and trigeminal neuropathy, was performed as described by Desuere and Hans (Deseure et al. J. Vis. Exp. 2015, 103, e53167). Wistar rats (46 in total) were randomly assigned to one of four experimental groups and then were behaviorally tested in a blinded manner. For studying the effects of subchronic treatment with the nanoemulsion formulation of DK-I-56-1 in IoN-CCl rats, DK-I-56-1 (10 mg/kg i.p.) or its vehicle (placebo nanoemulsion i.p.) were injected daily for 14 consecutive days after surgery. Sham-operated rats were treated in parallel. By a procedure slightly modified from Djordjevic et al. (Int. J. Pharm. 2015, 493, 40-54), biocompatible nanoemulsions were prepared by high pressure homogenization at 50° C. […] First, the response to the application of a graded series of three von Frey filaments onto ipsilateral vibrissal pad was measured on pre-operative days −3 and −1 and post-operative days 7, 14, 21, and 28. […] The other parameter, face grooming during body grooming, was manually assessed during 10 min of recording on pre-operative day −2 and post-operative days 2, 4, 8, and 15 (i.e. after 1, 3, 7, and 14 applications of treatment). […]

α1,4,6β3δ receptors = target: T1, α1,4,6β3δ receptors (Rattus norvegicus, UniProt P30191+P63079); assay: Electrophysiology in Xenopus oocytes, delta-containing receptors; type: cell-based; conditions: measured at EC20
T1 construct: expressed in transfected cells; host or cells: Xenopus laevis oocytes injected with subunit mRNA (3:1:5)
Method: Mature female Xenopus laevis (Nasco, Fort Atkinson, Wis., USA) were anaesthetized in a bath of ice-cold 0.17% Tricain (Ethyl-m-aminobenzoat, Sigma-Aldrich, St. Louis, Mo., USA) before decapitation and transfer of the frog's ovary to ND96 medium (96 mM NaCl, 2 mM KCl, 1 mM MgCl2, 5 mM HEPES; pH 7.5). Following incubation in 1 mg/mL collagenase (Sigma-Aldrich, St. Louis, Mo., USA) for 30 min, stage 5 to 6 oocytes were singled out of the ovary and defolliculated using a platinum wire loop. Oocytes were stored and incubated at 18° C. in NDE medium (96 mM NaCl, 2 mM KCl, 1 mM MgCl2, 5 mM HEPES, 1.8 mM CaCl2; pH 7.5) that was supplemented with 100 U per mL-1 penicillin, 100 μg per mL-1 streptomycin and 2.5 mM pyruvate. Oocytes were injected with an aqueous solution of mRNA. A total of 2.5 ng of mRNA per oocyte was injected. Subunit ratio was 1:1:5 for αxβγ2 (x=1, 2, 3, 5) and 3:1:5 for α4/6β3γ2 and αβδ receptors. Injected oocytes were incubated for at least 36 h before electrophysiological recordings. Oocytes were placed on a nylon-grid in a bath of NDE medium. For current measurements, the oocytes were impaled with two microelectrodes (2-3MΩ), which were filled with 2 M KCl. The oocytes were constantly washed by a flow of 6 mL per min-1 NDE that could be switched to NDE containing GABA and/or drugs. […] All recordings were performed at room temperature at a holding potential of −60 mV using a Warner OC-725C TEV (Warner Instrument, Hamden, Conn., USA) or a Dagan CA-1B Oocyte Clamp or a Dagan TEV-200A TEV (Dagan Corporation, Mineapolis, Minn., USA). Data were digitized using a Digidata 1322A or 1550 data acquisition system (Axon Instruments, Union City, Calif., USA), recorded using Clampex 10.5 software (Molecular Devices, Sunnyvale, Calif., USA), and analyzed using Clampfit 10.5 and GraphPad Prism 6.0 (La Jolla, Calif., USA) software. Concentration-response data were fitted using the Hill equation. Data are given as mean±SEM from at least three oocytes of two batches.
For selected test compounds full dose response curves were recorded in α1-6β3γ2 receptors. For selected compounds, dose response curves in additional receptor subtypes (α1, 4, 6β3δ, α6β1, 2γ2, α1-6β3) were also obtained. For a wider panel of compounds, a two point screening pharmacology was obtained at 1 and 10 μM compound concentrations.

mice, elevated plus maze = assay: Elevated plus maze (EPM) test; type: in vivo, mouse; conditions: 3 mg/kg or 10 mg/kg i.p., 10 min before the tests
Method: The epm test was conducted in a plexiglas maze apparatus (San Diego Instruments, San Diego, Calif.), consisting of a central platform (5×5 cm) with four arms (30×5 cm); two open and two closed arms with 25 cm-high sidewalls. The maze is elevated 38.5 cm from the room's floor. The mouse was placed at the central platform of the maze facing one of open arms and its behaviors in the maze were video-recorded and analyzed every 5 min-test session by the ethovision video tracking system (noldus information technology, wageningen, netherlands). The time spent for each mouse in the open or closed arm or the central platform as well as the distances traveled in the open or closed arm were measured. The degree of anxiety was accessed by the ratio of the time spent or the distance traveled in two open arms in a 5 min-test session.

[2] = tested on: mice, apomorphine-induced stereotypy climbing; assay: Apomorphine-induced stereotypy behaviors; type: in vivo, mouse; conditions: 3 mg/kg i.p., apomorphine 1 mg/kg s.c.
Method: The mouse was placed into a lidded cylindrical cage (diameter: 12 cm; height: 14 cm) made with 1 cm-separated metal grids for 1 hour's habituation. Then, the mouse received apomorphine (1 mg/kg, s.c.) Injection. The behaviors of the mouse were videotaped, and the stereotypy behaviors were scored every 5 min for 1 min, starting from 15 min before apomorphine injection until 60 min after injection.
The stereotypy behaviors induced by apomorphine were scored by reference to a previous report (Park et al. 2003) with modifications as the followings: 0: normal behaviors (sleeping, normal sniffing); 1: increased activity and sniffing (grooming, rearing, paw licking, jumping); 2: occasional clinging to the side wall of the cage with forepaws; 3: intermittent clinging to the top lid of the cage with all four paws; 4: uninterrupted climbing with all four paws to the top lid. The highest rating score during the 1 min-recording period was counted.

T1 sequence (P30191 20-453): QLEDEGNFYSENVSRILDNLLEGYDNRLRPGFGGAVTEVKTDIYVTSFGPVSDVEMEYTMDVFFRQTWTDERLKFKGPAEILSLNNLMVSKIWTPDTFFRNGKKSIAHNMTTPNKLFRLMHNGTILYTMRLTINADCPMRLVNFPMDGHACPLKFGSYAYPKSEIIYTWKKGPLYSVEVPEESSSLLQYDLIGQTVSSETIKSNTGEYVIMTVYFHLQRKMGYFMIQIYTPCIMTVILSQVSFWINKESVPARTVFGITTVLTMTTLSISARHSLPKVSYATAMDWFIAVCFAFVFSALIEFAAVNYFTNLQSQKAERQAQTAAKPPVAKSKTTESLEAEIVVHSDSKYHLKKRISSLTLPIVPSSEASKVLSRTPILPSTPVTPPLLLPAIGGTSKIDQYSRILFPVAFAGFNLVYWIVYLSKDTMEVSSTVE
T1 sequence (P63079 26-473): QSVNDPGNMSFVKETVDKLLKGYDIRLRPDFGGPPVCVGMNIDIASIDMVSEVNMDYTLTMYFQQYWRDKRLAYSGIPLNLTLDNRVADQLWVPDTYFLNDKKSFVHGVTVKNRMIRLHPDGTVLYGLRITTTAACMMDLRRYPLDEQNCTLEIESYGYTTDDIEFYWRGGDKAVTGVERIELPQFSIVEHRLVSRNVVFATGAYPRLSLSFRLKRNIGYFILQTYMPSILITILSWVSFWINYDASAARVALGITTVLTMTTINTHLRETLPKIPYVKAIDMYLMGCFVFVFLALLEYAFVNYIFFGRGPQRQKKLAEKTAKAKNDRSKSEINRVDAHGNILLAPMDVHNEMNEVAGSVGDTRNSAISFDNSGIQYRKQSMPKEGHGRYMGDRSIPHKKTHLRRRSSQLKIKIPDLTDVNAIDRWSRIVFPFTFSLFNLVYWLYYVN
T1 sequence (P18506 25-449 partner): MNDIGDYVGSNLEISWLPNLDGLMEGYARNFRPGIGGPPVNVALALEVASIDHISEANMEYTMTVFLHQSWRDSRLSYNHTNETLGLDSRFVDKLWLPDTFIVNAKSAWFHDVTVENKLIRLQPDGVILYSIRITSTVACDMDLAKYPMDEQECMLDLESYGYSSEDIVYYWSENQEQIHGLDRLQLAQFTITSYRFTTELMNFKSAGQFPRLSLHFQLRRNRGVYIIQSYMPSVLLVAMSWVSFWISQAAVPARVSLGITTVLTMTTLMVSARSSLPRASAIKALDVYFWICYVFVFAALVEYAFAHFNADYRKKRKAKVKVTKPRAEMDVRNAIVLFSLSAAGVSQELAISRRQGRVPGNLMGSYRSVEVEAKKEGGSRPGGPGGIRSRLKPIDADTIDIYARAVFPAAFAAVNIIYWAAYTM

Compound: [2H]C([2H])([2H])Oc1ccc(-n2nc3c4ccc(OC)cc4[nH]cc-3c2=O)cc1 [DK-I-56-1, 7-Methoxy-2-(4-methoxy-d3-phenyl)-2,5-dihydro-3H-pyrazolo[4,3-c]quinolin-3-one]
- fraction unbound [1]: < 0.005
- anti-allodynic effect, response score to von Frey filaments, post-operative days 14 and 21 (IoN-CCl Wistar rats; 10 mg/kg i.p. nanoemulsion daily for 14 days after surgery): statistically significant
- anti-allodynic effect, post-operative day 28 (IoN-CCl Wistar rats; 14 days after the last dose): disappeared

Compound: [2H]C([2H])([2H])Oc1ccc2c3nn(-c4ccc(OC)nc4)c(=O)c-3c[nH]c2c1 [DK-I-86-1, 7-Methoxy-d3-2-(6-methoxypyridin-3-yl)-2,5-dihydro-3H-pyrazolo[4,3-c]quinolin-3-one]
- Receptor potentiation in the α6β3δ receptor (α1,4,6β3δ receptors): modulated

Compound: COc1ccc(-n2nc3c4ccc(OC)cc4[nH]cc-3c2=O)cc1 [Compound 6, 7-Methoxy-2-(4-methoxyphenyl)-2,5-dihydro-3H-pyrazolo[4,3-c]quinolin-3-one]
- anxiolytic activity (mice, elevated plus maze): neither displayed any significant
- stereotypy climbing behaviors induced by apomorphine [2]: did not affect
